# Values quoted from earlier work in US20220265833A1, “ASPARTIC PROTEASE-TRIGGERED ANTIFUNGAL HYDROGELS” (priority 2017, published 2022).
# Square brackets hold non-standard residues; d marks the D form. Ends that are not written are not given here. Phe(4-NO2) = N[C@@H](Cc1ccc([N+](=O)[O-])cc1)C(=O)O
# Tested on: Saps
row,Substance,rank of peptide-Sap catalytic efficiency
1,LAF(p-NO2)FGAPK (LA[Phe(4-NO2)]FGAPK) [LFFK.AG],"In order of decreasing catalytic efficiencies, these peptides were: LFFK.AG, LFFK.A2, and LFFK"
2,LAF(p-NO2)FLAPK (LA[Phe(4-NO2)]FLAPK) [LFFK.A2],"In order of decreasing catalytic efficiencies, these peptides were: LFFK.AG, LFFK.A2, and LFFK"
3,LRF(p-NO2)↓FLAPK (LR[Phe(4-NO2)]FLAPK) [LFFK],"In order of decreasing catalytic efficiencies, these peptides were: LFFK.AG, LFFK.A2, and LFFK"
